In publication PMC4904262 (ACS Medicinal Chemistry Letters, 2016):
Where two headings read alike, the source gives them in different places.

Experiments:
[1] = target: ABL (Q252H) (Homo sapiens, UniProt P00519, Q252H); settings: 1 µM, ATP at Km
[2] = target: CKIT(V560G) (Homo sapiens, UniProt P10721, V560G); settings: 1 µM, ATP at Km
[3] = target: TIE2(R849W) (Homo sapiens, UniProt Q02763, R849W); settings: 1 µM, ATP at Km
[4] = target: RET(V804M) (Homo sapiens, UniProt P07949, V804M); settings: 1 µM, ATP at Km
[5] = target: cMET (Y1248C) (Homo sapiens, UniProt P08581, Y1230C); settings: 1 µM, ATP at Km
[6] = target: SRC(1-530) (Homo sapiens, UniProt P12931); settings: 1 µM, ATP at Km
[7] = target: MKK4 (Mus musculus, UniProt P47809); settings: 1 µM, ATP at Km
[8] = target: CKIT(D816H) (Homo sapiens, UniProt P10721, D816H); settings: 1 µM, ATP at Km
[9] = target: FGFR2(N549H) (Homo sapiens, UniProt P21802, N549H); settings: 1 µM, ATP at Km
[10] = target: ABL(T315I) (Homo sapiens, UniProt P00519, T315I); settings: 1 µM, ATP at Km
[11] = target: EGFR(T790M,L858R) (Homo sapiens, UniProt P00533, L858R/T790M); settings: 1 µM, ATP at Km
[12] = target: TIE2(Y897S) (Homo sapiens, UniProt Q02763, Y897S); settings: 1 µM, ATP at Km
[13] = target: PI3 KINASE (H1047R/P85A) (Homo sapiens, UniProt P42336, H1047R); settings: 1 µM, ATP at Km
[14] = target: LCK (Homo sapiens, UniProt P06239); settings: LCK (second listing, page 11); 1 µM; ATP at Km
[15] = target: cMET (D1246N) (Homo sapiens, UniProt P08581, D1228N); settings: 1 µM, ATP at Km
[16] = target: CHK2(I157T) (Homo sapiens, UniProt O96017, I157T); settings: 1 µM, ATP at Km
[17] = tested on: PI3 KINASE (P65A); settings: 1 µM, ATP at Km
[18] = target: FGFR1(V561M) (Homo sapiens, UniProt P11362, V561M); settings: 1 µM, ATP at Km
[19] = target: RET (V804L) (Homo sapiens, UniProt P07949, V804L); settings: 1 µM, ATP at Km
[20] = target: FLT3(D835Y) (Homo sapiens, UniProt P36888, D835Y); settings: 1 µM, ATP at Km
[21] = target: CDK19 in the presence of cyclin C (Homo sapiens, UniProt Q9BWU1); test: biochemical; settings: read-out: CDK19 residence time ± SD
[22] = target: P70S6K (Homo sapiens, UniProt P23443); settings: 1 µM, ATP at Km
[23] = rat, in vivo, 0.2 mg/kg
[24] = mouse, in vivo, iv, 0.2 mg/kg
[25] = target: PKA (Homo sapiens, UniProt P17612); settings: 1 µM, ATP at Km
[26] = in vivo; settings: rat
[27] = target: MAPKAP-K3 (Homo sapiens, UniProt Q16644); settings: 1 µM, ATP at Km
[28] = target: CDK8 in the presence of cyclin C (Homo sapiens, UniProt P49336); test: biochemical; settings: read-out: CDK8 residence time ± SD

Sequence of FGFR1(V561M) (P11362 22-822 V561M): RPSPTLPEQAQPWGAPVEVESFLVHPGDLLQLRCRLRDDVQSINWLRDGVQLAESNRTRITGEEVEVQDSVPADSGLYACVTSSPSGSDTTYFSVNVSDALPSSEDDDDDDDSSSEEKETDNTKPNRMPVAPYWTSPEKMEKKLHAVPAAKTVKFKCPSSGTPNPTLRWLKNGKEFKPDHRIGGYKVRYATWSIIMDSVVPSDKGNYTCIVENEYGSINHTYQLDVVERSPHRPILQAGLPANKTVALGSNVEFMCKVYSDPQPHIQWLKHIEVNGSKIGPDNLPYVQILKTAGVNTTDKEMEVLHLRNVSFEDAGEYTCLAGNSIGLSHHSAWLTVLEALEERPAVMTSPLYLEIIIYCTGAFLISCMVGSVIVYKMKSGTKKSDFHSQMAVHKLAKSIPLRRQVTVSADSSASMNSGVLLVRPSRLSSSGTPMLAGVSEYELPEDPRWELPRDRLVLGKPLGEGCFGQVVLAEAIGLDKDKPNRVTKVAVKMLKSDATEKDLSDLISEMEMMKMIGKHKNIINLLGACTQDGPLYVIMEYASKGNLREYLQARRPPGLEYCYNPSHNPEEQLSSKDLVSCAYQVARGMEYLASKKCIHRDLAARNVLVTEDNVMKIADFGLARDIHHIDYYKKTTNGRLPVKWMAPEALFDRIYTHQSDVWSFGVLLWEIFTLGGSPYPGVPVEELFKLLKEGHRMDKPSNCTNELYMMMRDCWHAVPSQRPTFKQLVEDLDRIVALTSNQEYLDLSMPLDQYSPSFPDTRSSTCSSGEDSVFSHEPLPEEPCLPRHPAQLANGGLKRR
Sequence of CKIT(V560G) (P10721 26-976 V560G): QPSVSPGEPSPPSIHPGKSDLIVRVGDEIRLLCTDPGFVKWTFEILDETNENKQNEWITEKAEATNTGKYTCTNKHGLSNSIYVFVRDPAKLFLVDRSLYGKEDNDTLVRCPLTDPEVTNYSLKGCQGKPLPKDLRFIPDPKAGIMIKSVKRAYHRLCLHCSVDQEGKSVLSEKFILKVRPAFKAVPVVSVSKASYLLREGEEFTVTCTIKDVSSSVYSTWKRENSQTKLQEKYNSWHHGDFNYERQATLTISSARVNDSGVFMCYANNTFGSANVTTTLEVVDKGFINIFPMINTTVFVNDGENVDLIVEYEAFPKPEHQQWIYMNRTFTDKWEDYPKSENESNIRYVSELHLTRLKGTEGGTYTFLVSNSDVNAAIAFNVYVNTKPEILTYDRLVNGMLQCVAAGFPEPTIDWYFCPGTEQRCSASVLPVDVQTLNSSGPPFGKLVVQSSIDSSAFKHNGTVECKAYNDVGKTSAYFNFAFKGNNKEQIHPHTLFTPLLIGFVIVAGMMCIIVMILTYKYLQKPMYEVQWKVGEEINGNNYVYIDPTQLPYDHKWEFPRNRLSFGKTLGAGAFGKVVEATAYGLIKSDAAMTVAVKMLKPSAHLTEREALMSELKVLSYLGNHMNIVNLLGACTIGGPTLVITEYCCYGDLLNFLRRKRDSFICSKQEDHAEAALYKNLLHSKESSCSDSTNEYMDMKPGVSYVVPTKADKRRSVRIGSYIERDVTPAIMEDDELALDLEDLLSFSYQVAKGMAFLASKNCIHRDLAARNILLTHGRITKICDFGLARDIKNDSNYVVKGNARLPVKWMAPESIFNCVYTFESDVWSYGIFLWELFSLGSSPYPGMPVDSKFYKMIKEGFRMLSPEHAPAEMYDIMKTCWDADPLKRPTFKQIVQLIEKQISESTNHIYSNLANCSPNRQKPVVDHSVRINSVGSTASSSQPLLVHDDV
Sequence of TIE2(Y897S) (Q02763 23-1124 Y897S): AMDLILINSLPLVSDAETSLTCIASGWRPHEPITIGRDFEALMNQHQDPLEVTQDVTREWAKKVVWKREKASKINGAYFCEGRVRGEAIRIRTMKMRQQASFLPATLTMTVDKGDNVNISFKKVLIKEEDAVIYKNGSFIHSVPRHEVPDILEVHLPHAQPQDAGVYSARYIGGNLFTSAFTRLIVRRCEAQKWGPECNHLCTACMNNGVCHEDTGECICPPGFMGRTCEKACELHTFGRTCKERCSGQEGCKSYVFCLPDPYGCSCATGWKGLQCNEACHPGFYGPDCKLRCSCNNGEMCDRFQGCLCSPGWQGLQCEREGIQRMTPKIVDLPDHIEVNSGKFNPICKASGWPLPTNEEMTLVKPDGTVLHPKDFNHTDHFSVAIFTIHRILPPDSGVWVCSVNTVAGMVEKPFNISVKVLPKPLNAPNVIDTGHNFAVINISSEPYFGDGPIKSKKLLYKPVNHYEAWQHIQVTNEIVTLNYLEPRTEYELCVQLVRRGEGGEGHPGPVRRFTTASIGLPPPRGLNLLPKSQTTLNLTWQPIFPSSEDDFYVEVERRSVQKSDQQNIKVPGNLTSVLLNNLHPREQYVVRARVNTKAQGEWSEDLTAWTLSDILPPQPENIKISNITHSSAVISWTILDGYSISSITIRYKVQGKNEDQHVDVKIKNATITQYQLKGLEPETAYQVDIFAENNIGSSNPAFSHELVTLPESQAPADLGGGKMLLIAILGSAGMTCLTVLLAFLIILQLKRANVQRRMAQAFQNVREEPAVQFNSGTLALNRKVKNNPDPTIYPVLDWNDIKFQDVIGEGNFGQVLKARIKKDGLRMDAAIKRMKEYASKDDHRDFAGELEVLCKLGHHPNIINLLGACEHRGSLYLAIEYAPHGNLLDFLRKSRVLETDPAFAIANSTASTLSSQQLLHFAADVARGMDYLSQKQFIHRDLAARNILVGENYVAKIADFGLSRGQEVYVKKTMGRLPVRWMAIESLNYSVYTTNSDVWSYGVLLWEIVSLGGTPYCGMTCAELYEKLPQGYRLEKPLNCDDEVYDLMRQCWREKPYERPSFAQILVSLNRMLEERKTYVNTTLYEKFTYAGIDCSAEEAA
Sequence of SRC(1-530) (P12931 1-530 limits assumed): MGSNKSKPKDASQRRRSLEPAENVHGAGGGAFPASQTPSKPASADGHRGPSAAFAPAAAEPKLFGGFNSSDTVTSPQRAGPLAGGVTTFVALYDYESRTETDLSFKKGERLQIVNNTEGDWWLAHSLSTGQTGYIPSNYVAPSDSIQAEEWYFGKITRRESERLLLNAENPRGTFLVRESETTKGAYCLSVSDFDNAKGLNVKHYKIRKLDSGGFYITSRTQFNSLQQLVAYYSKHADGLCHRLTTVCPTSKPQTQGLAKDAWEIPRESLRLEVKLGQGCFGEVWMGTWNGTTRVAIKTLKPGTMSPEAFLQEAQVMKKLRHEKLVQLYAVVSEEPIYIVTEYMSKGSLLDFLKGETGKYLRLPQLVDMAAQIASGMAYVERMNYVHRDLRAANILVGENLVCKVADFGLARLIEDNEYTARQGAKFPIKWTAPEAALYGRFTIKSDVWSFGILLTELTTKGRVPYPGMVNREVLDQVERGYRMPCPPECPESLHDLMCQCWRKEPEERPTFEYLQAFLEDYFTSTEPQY
Sequence of RET (V804L) (P07949 29-1114 V804L): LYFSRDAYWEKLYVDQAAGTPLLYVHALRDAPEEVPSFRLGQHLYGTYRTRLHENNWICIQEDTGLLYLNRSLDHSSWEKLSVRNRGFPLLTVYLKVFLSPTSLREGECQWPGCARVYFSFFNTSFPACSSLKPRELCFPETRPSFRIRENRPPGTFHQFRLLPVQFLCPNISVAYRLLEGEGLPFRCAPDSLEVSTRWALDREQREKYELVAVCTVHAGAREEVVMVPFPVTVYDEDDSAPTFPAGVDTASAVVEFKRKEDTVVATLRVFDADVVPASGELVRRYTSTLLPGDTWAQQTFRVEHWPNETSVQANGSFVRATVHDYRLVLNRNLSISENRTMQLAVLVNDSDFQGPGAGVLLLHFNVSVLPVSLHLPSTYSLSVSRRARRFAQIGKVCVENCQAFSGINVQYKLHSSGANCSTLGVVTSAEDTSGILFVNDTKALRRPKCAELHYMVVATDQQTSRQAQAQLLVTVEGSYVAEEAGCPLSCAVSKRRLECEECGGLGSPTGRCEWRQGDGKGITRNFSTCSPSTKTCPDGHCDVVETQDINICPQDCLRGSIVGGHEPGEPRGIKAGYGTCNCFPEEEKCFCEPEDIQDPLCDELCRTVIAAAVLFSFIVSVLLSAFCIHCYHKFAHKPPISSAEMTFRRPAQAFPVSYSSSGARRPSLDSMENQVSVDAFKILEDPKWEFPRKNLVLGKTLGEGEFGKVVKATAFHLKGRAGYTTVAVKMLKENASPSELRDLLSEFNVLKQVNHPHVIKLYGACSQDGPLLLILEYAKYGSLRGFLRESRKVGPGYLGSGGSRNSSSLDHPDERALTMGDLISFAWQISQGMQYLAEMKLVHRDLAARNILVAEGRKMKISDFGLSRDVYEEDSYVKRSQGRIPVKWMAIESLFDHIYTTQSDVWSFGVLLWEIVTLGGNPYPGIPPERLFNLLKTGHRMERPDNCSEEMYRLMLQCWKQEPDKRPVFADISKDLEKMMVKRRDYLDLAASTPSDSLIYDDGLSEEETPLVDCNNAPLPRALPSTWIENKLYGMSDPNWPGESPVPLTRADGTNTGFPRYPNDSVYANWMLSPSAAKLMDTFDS
Sequence of RET(V804M) (P07949 29-1114 V804M): as the sequence (P07949 29-1114 V804L) above, with L776M counted along it
Sequence of MKK4 (P47809 2-397 limits assumed): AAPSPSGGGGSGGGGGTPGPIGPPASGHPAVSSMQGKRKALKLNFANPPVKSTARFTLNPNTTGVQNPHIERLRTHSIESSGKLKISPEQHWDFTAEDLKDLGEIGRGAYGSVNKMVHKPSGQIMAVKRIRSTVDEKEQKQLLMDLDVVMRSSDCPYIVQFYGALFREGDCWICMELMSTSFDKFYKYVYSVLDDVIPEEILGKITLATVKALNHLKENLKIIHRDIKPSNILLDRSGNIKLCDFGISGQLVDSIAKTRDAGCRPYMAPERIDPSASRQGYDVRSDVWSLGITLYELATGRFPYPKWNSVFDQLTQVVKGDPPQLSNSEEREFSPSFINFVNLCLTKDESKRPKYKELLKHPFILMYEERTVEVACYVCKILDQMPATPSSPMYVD
Sequence of TIE2(R849W) (Q02763 23-1124 R849W): as the sequence (Q02763 23-1124 Y897S) above, with R827W, S875Y counted along it
Sequence of CKIT(D816H) (P10721 26-976 D816H): as the sequence (P10721 26-976 V560G) above, with G535V, D791H counted along it

## COC1CN(C(=O)c2ccc3c(N)ncc(-c4ccc(-c5cnn(C)c5)cc4)c3c2)C1 [Compound 59]
[1]
  percentage effect: 9%
[2]
  percentage effect: -21%
[3]
  percentage effect: -12%
[4]
  percentage effect: 7%
[5]
  percentage effect: -19%
[6]
  percentage effect: -3%
[7]
  percentage effect: 3%
[8]
  percentage effect: -1%
[9]
  percentage effect: -14%
[10]
  percentage effect: 5%
[11]
  percentage effect: -2%
[12]
  percentage effect: -6%
[13]
  percentage effect: -2%
[14]
  percentage effect: 4%
[15]
  percentage effect: 3%
[16]
  percentage effect: -9%
[17]
  percentage effect: -4%
[18]
  percentage effect: -6%
[19]
  percentage effect: -9%
[20]
  percentage effect: -10%

## COC1CN(C(=O)c2ccc3c(N)ncc(-c4ccc(-c5cnn(C)c5)cc4)c3n2)C1 [Compound 51]
[21]
  residence time: 31 ± 3 min
[22]
  percentage effect: -25%
[23]
  % in feces (iv dosing): 36%
[24]
  % in feces (iv dosing): 31%
[25]
  percentage effect: -1%
[26]; iv, 0.2 mg/kg
  Vd: 2.13 L/kg
  clearance: 21.5 mL/min/kg
[26]; po, 0.5 mg/kg
  bioavailability: 57%
[27]
  percentage effect: -15%
[28]
  residence time: 15 ± 2 min
